The values that follow come from patent US10633635B2, “Methods for production of functional beta cells” (Janssen Biotech, Inc., priority 2016, dated 2020).

“Also recorded” adds a separate entry of the source. Where a name gives a salt, the structure may show the parent alone.

One assay has as its system UCN3. Kind of assay: Small molecule screen: qRT-PCR of UCN3 expression at Stage 7 in H1-hESC-derived ALI clusters. It counts as cell-based, human. To be noted: 2 μM small molecule added at Stage 7; S7D7 ALI clusters; quantitative real-time PCR; FIGS. 1E-1H. The method, then: (§1) The following example is directed to identification of small molecules that can enhance the maturation status of a pancreatic beta cell, via increasing the gene expression of mature beta cell markers including MAFA (v-maf avian musculoaponeurotic fibrosarcoma oncogene homolog A) or UCN3 (urocortin 3). […] Y-compound was added to only during the first 24 hours post-seeding.
(§2) For FIGS. 1A to 1H the cultures were differentiated using the following protocol.
(§3) In general, the embodiments herein differentiate human pluripotent cells substantially as described above in Stages 1-7. For Stage 7, various small molecules were added and their effect was evaluated by quantitative real-time PCR. These small molecules were evaluated and 2 μM of each was added at Stage7.
(§4) Primer details are outlined in Table III.
As to `Nc1ncn([C@@H]2O[C@H](CO)[C@@H](O)[C@H]2O)c(=O)n1` [5-Azacytidine], the “expression of UCN3 as compared to S6D7, or untreated or DMSO treated cultures at Stage 7” value is given as “significantly upregulated; also recorded: increased”.
The same measure, in the same setting: then `CC(=O)Nc1ccc(C(=O)Nc2ccccc2N)cc1` [CI994], with “significantly upregulated; also recorded: increased”.
Still for that read-out and setting: in the case of `O=C(CCCCCCC(=O)Nc1cccnc1)NO` [Pyroxamide] it was “significantly upregulated; also recorded: increased”.

The assay is the same for the next values; noted with them: Stage 7 no ALK5, low T3, ZM, H, NAC, FI, BLAR001; 5 μM AZT; 1 μM or 10 μM DEZA; S7D7 ALI clusters; FIG. 2B.
Turning to `Nc1nccc2c1ncn2[C@@H]1C=C(CO)[C@@H](O)[C@H]1O` [3-Deazaneplanocin A], the “UCN3 up-regulation during Stage 7” value was “but not UCN3”.
On the same count and under the same terms, in the case of `Nc1ncn([C@@H]2O[C@H](CO)[C@@H](O)[C@H]2O)c(=O)n1` [5-Azacytidine] it was “up-regulator”.

The test system of a further assay is MAFA or UCN3. Kind of assay: Small molecule screen at Stage 7: induction of MAFA or UCN3 expression. It counts as cell-based, human. Particulars: Stage 7 at 20 mM D-glucose plus BME Vitamin supplement; 79 small molecules of Table XI. The method, then: as §1, §2
In general, the embodiments herein differentiate human pluripotent cells substantially as described above in Stages 1-7. For Stage 7, various small molecules were added and their effect was evaluated by quantitative real-time PCR. […] These small molecules were evaluated and 2 μM of each was added at Stage7.
as §4
Regarding `Nc1ncn([C@@H]2O[C@H](CO)[C@@H](O)[C@H]2O)c(=O)n1` [5-Azacytidine], the “expression of the MAFA or UCN3” value is “induced expression”.
The same measure, in the same setting: then `CC1=NN(c2ccc(C(=O)O)cc2)C(=O)C1=Cc1ccc(-c2cc(C)c(C)cc2[N+](=O)[O-])o1` [C646], with “induced expression”; and `O=C(O[C@@H]1Cc2c(O)cc(O)cc2O[C@@H]1c1cc(O)c(O)c(O)c1)c1cc(O)c(O)c(O)c1` [EGCG], with “induced expression”; and `O=c1c(O)c(-c2ccc(O)c(O)c2)oc2cc(O)ccc12` [Fisetin], with “induced expression”.
Same read-out and setting: then `COc1ccc(S(=O)(=O)ON=C2C=C(C)C(=O)C(C)=C2)cc1` [L002], with “induced expression”.
`Nc1nc(OCc2cc(Br)cs2)c2[nH]cnc2n1` [Lomeguatrib]: the “expression of the MAFA or UCN3” value was “induced expression”.
On the same count and under the same terms, in the case of `O=C1c2c(O)ccc(O)c2C(=O)c2c(NCCNCCO)ccc(NCCNCCO)c21` [Mitoxantrone dihydrochloride] it was “induced expression”; in that of `CC(C)N(CCCNC(=O)Nc1ccc(C(C)(C)C)cc1)C[C@H]1O[C@@H](n2cc(Br)c3c(N)ncnc32)[C@H](O)[C@@H]1O` [SGC0946], “induced expression”; in that of `Cc1cc(Nc2ccc(NC(=O)c3ccc(Nc4ccnc5ccccc45)cc3)cc2)nc(N)n1` [SGI 1027], “induced expression”.
The same measure, in the same setting: then `Cn1nnc2c(C(N)=O)ncn2c1=O` [Temozolomide], with “induced expression”; and `O=c1ncccn1[C@@H]1O[C@H](CO)[C@@H](O)[C@H]1O` [Zebularine], with “induced expression”.

Another assay relates to INHBB.
Test: not given
Particulars: S7D7 ALI clusters; 10 μM ALK5 inhibitor II in Stage 7; FIG. 3A.
For the molecule `Cc1cccc(-c2n[nH]cc2-c2ccc3ncccc3n2)n1` [ALK5 inhibitor II, 2-(3-(6-Methylpyridin-2-yl)-1H-pyrazol-4-yl)-1,5-naphthyridine], the “INHBB expression relative to human islets” value is reported as “enriched above the expression seen in human islets”.

In a further assay the test system is human islets. Kind of assay: Glucose-stimulated insulin secretion (perifusion, C-PEPTIDE ELISA). It counts as cell-based. To be noted: 16.7 mM D-glucose ± 100 ng/ml Exendin-4, FIG. 8D. The method, then: For quantification of glucose-dependent insulin secretion, Stage 7 ALI clusters, Aggrewell™ clusters and matured human islets were characterized by a cell perifusion system (BioRep Technologies, Miami, Fla., Catalog No. PERI4-02). Briefly, to normalize insulin secretion to a baseline, ALI/Aggrewell™ clusters or human islets were transferred into warm (37° C.) Kreb's Buffer (Table IX). Cells were loaded into perifusion chambers (BioRep Technologies, Catalog No. PERI-CHAMBER), and were continuously perfused (flow rate of 100 μl/min) with […] sequential Kreb's buffers supplemented with either: (i) 3 mM D-glucose; (ii) 16.7 mM D-glucose±100 ng/ml Exendin-4 (“Ex4”); and (iii) 25 mM KCl with 3 mM D-glucose. Specific perifusion protocols are indicated in each figure. Perfusate samples were collected every minute, and C-PEPTIDE protein levels (units in ng/ml) detected by a C-PEPTIDE ELISA (Mercodia, Uppsala, Sweden, Catalog No. 10-1136-01).
Background: An ELISA detects its analyte on a solid surface through an enzyme-linked reagent.
For the molecule “Exendin-4: insulin secretagogue, 100 ng/ml in perifusion buffer (Sigma-Aldrich E7144)”, the “amplitude of the GSIS response” value is recorded as “did not increase the amplitude of the GSIS response”.

Another assay relates to MAFA. Kind of assay: Small molecule screen: qRT-PCR of MAFA expression at Stage 7 in H1-hESC-derived ALI clusters. Format: cell-based, human. Particulars: 2 μM small molecule added at Stage 7; S7D7 ALI clusters; quantitative real-time PCR; FIGS. 1A-1D. The method, then: as §1, §2, §3, §4
On the technique in general: Real-time PCR tracks product formation cycle by cycle.
On to `COc1cc2c(cc1OCCCN1CCCC1)N=C(N)C21CCC1` [A366], for which the “expression of MAFA as compared to S6D7, or untreated or DMSO treated cultures at Stage 7” value (“expression of MAFA as compared to S6D7” below) is reported as “significantly upregulated”.
Still for that read-out and setting: then `O=c1cc(N2CCNCC2)oc2c(-c3ccccc3)cccc12` [LY303511], with “significantly upregulated”; and `Cn1c(/C=C/C(=O)NO)ccc1/C=C/C(=O)c1cccc(F)c1` [MC1568], with “significantly upregulated”.
On to `Cc1cc(/N=N/c2ccc(S(=O)(=O)Nc3ccccn3)cc2)c(N)cc1O` [MS436], for which the “expression of MAFA as compared to S6D7” value was “significantly upregulated”.
Turning to `CC(=O)NCC(=O)N1[C@@H]2CC[C@H]1c1ccc(Nc3ncc(C(F)(F)F)c(NC4CCC4)n3)cc12` [PF03814735], the “expression of MAFA as compared to S6D7” value is “significantly upregulated”.
On the same count and under the same terms, then `COc1ccccc1S(=O)(=O)Nc1ccc2c(c1)CN(C)C(=O)N2` [PFI1], with “significantly upregulated”.
Take `CCn1c(-c2nonc2N)nc2cncc(CNC3CCNCC3)c21` [SB747651A dihydrochloride]: the “expression of MAFA as compared to S6D7” value is on record as “significantly upregulated”.
The same measure, in the same setting: in the case of `O=C(CCl)Nc1ccc(S(=O)(=O)c2ccc(NC(=O)CCl)cc2)cc1` [TC-E5003] it was “significantly upregulated”; in that of `COc1cc2c(NC3CCN(C(C)C)CC3)nc(C3CCCCC3)nc2cc1OCCCN1CCCC1` [UNC0638], “significantly upregulated”; in that of `COc1cc2c(NC3CCN(C(C)C)CC3)nc(N3CCC(F)(F)CC3)nc2cc1OCCCN1CCCC1` [UNC0642], “significantly upregulated”.
Same read-out and setting: then `COc1cc2c(NC3CCN(C4CCCCC4)CC3)nc(N3CCCN(C(C)C)CC3)nc2cc1OCCCN1CCCCC1` [UNC0646], with “significantly upregulated”; and `COc1cc2c(Nc3ccc(NC(=O)c4ccccc4)cc3)ncnc2cc1OCCCN1CCOCC1` [ZM447439], with “significantly upregulated”.

For another assay, the system named is MAFA. Described as above. It counts as cell-based, human. Particulars: Stage 7 no ALK5, low T3, ZM, H, NAC, FI, BLAR001; 5 μM AZT; 1 μM or 10 μM DEZA; S7D7 ALI clusters; FIG. 2A.
As to `Nc1nccc2c1ncn2[C@@H]1C=C(CO)[C@@H](O)[C@H]1O` [3-Deazaneplanocin A], the “MAFA up-regulation during Stage 7” value is given as “effective up-regulator of MAFA”.
